In patent US8895504B2, “Amylin derivatives” (priority 2008, dated 2014):
*1 amine or outer side, *2 acyl side, *3 side chain or, on linkers, in order; H or OH if unused. Where a SMILES comes first, the peptide text is derived from it. Bridges are numbered along the chain shown (N, C = ends). The star is where a group is joined. C20 diacid = O=C(O)CCCCCCCCCCCCCCCCCCC(=O)*; C18 diacid = O=C(O)CCCCCCCCCCCCCCCCC(=O)*; PEG8 = NCCOCCOCCOCCOCCOCCOCCOCCOCCC(=O)O; γGlu = O=C(O)[C@H](CCC(=O)[*:2])N[*:1]; AEEA = NCCOCCOCC(=O)O

Target: T1, Amylin 3(a) receptor (human calcitonin receptor (CTa) and RAMP-3) (Homo sapiens, UniProt O60896+P30988)
T1 construct: expressed in transfected cells; host or cells: BHK570 cells, stably transfected with a CRE-luciferase reporter
Experiment: Luciferase assay (III), BHK Amylin 3(a)//CRE-luc cells
Type: cell-based
Conditions: BHK cells with Amylin 3(a) receptor and CRE luciferase reporter, 4 hours incubation; read-out: Potency Luciferase
In short: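 Read-out is CRE-driven luciferase luminescence, taken 30 min after LucLite addition at room temperature. Compounds were incubated 4 h at 37° C in assay medium (10% FBS, 10 mM Hepes, pH 7,4). The cell line is BHK570 co-transfected with human calcitonin receptor CTa and RAMP-3, seeded overnight before use.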

T1 sequence (O60896 24-148): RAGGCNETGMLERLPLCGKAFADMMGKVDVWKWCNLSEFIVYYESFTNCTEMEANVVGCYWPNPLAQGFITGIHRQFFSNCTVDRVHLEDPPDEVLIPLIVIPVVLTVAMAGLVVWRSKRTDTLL
T1 sequence (P30988 25-474): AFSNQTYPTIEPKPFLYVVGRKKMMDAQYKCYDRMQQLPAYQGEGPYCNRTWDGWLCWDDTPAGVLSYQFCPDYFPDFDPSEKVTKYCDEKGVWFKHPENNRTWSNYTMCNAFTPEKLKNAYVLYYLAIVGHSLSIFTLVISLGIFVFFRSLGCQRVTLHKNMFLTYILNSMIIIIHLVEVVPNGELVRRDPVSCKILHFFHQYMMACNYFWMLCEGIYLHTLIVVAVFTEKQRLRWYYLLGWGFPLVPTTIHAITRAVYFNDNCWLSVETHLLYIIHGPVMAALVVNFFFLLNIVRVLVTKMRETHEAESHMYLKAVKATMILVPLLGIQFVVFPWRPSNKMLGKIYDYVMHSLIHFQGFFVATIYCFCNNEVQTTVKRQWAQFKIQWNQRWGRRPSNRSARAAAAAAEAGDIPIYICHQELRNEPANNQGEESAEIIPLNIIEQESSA

SMILES | EC50
CC[C@H](C)[C@H](NC(=O)[C@@H]1CCCN1C(=O)CNC(=O)[C@H](Cc1ccccc1)NC(=O)[C@H](CC(N)=O)NC(=O)[C@H](CC(N)=O)NC(=O)[C@H](CO)NC(=O)[C@H](CO)NC(=O)[C@H](Cc1c[nH]cn1)NC(=O)[C@H](CCCNC(=N)N)NC(=O)[C@H](CC(C)C)NC(=O)[C@H](Cc1ccccc1)NC(=O)[C@H](CC(N)=O)NC(=O)[C@H](C)NC(=O)[C@H](CC(C)C)NC(=O)[C@H](CCCNC(=N)N)NC(=O)[C@H](CCC(N)=O)NC(=O)[C@@H](NC(=O)[C@H](C)NC(=O)[C@@H]1CSSC[C@H](NC(=O)[C@H](Cc2c[nH]cn2)NC(=O)[C@H](Cc2c[nH]cn2)NC(=O)COCCOCCNC(=O)CC[C@H](NC(=O)CCCCCCCCCCCCCCCCCCC(=O)O)C(=O)O)C(=O)N[C@@H](CC(N)=O)C(=O)N[C@@H]([C@@H](C)O)C(=O)N[C@@H](C)C(=O)N[C@@H]([C@@H](C)O)C(=O)N1)[C@@H](C)O)C(=O)N[C@@H](CC(C)C)C(=O)N1CCC[C@H]1C(=O)N1CCC[C@H]1C(=O)N[C@H](C(=O)N[C@@H](CC(N)=O)C(=O)N[C@H](C(=O)NCC(=O)N[C@@H](CO)C(=O)N[C@@H](CC(N)=O)C(=O)N[C@H](C(=O)N[C@@H](Cc1ccc(O)cc1)C(N)=O)[C@@H](C)O)C(C)C)[C@@H](C)O [Example 34, N-alpha-[2-(2-{2-[4-(S)-Carboxy-4-(19-carboxynonadecanoylamino)butyrylamino]ethoxy}ethoxy)acetyl]-His-[His1,Arg17]-pramlintide] ({C20 diacid-γGlu-AEEA}-HHCNTATCATQRLANFLRHSSNNFGPILPPTNVGSNTY-NH2; disulfide 3-8) | 0.2 nM
CC[C@H](C)[C@H](NC(=O)[C@@H]1CCCN1C(=O)CNC(=O)[C@H](Cc1ccccc1)NC(=O)[C@H](CC(N)=O)NC(=O)[C@H](CC(N)=O)NC(=O)[C@H](CO)NC(=O)[C@H](CO)NC(=O)[C@H](Cc1c[nH]cn1)NC(=O)[C@H](CO)NC(=O)[C@H](CC(C)C)NC(=O)[C@H](Cc1ccccc1)NC(=O)[C@H](CC(N)=O)NC(=O)[C@H](C)NC(=O)[C@H](CC(C)C)NC(=O)[C@H](CCCNC(=N)N)NC(=O)[C@H](CCC(N)=O)NC(=O)[C@@H](NC(=O)[C@H](C)NC(=O)[C@@H]1CSSC[C@H](NC(=O)CC[C@H](NC(=O)CCCCCCCCCCCCCCCCCCC(=O)O)C(=O)O)C(=O)N[C@@H](CC(N)=O)C(=O)N[C@@H]([C@@H](C)O)C(=O)N[C@@H](C)C(=O)N[C@@H]([C@@H](C)O)C(=O)N1)[C@@H](C)O)C(=O)N[C@@H](CC(C)C)C(=O)N1CCC[C@H]1C(=O)N1CCC[C@H]1C(=O)N[C@H](C(=O)N[C@@H](CC(N)=O)C(=O)N[C@H](C(=O)NCC(=O)N[C@@H](CO)C(=O)N[C@@H](CC(N)=O)C(=O)N[C@H](C(=O)N[C@@H](Cc1ccc(O)cc1)C(N)=O)[C@@H](C)O)C(C)C)[C@@H](C)O [Example 11, N-alpha-[(S)-4-Carboxy-4-(19-carboxynonadecanoylamino)butyryl]-[Ser17]-pramlintide (2-37)] ({C20 diacid-γGlu}-CNTATCATQRLANFLSHSSNNFGPILPPTNVGSNTY-NH2; disulfide 1-6) | 0.1 nM
CC[C@H](C)[C@H](NC(=O)[C@@H]1CCCN1C(=O)CNC(=O)[C@H](Cc1ccccc1)NC(=O)[C@H](CC(N)=O)NC(=O)[C@H](CC(N)=O)NC(=O)[C@H](CO)NC(=O)[C@H](CO)NC(=O)[C@H](Cc1c[nH]cn1)NC(=O)CNC(=O)[C@H](CC(C)C)NC(=O)[C@H](Cc1ccccc1)NC(=O)[C@H](CC(N)=O)NC(=O)[C@H](C)NC(=O)[C@H](CC(C)C)NC(=O)[C@H](CCCNC(=N)N)NC(=O)[C@H](CCC(N)=O)NC(=O)[C@@H](NC(=O)[C@H](C)NC(=O)[C@@H]1CSSC[C@H](NC(=O)[C@H](CCCCN)NC(=O)[C@H](CCCNC(=N)N)NC(=O)CC[C@H](NC(=O)CCCCCCCCCCCCCCCCCCC(=O)O)C(=O)O)C(=O)N[C@@H](CC(N)=O)C(=O)N[C@@H]([C@@H](C)O)C(=O)N[C@@H](C)C(=O)N[C@@H]([C@@H](C)O)C(=O)N1)[C@@H](C)O)C(=O)N[C@@H](CC(C)C)C(=O)N1CCC[C@H]1C(=O)N1CCC[C@H]1C(=O)N[C@H](C(=O)N[C@@H](CC(N)=O)C(=O)N[C@H](C(=O)NCC(=O)N[C@@H](CO)C(=O)N[C@@H](CC(N)=O)C(=O)N[C@H](C(=O)N[C@@H](Cc1ccc(O)cc1)C(N)=O)[C@@H](C)O)C(C)C)[C@@H](C)O [Example 18, N-alpha-[(S)-4-Carboxy-4-(19-carboxynonadecanoylamino)butyryl]-Arg-[Gly17]-pramlintide] ({C20 diacid-γGlu}-RKCNTATCATQRLANFLGHSSNNFGPILPPTNVGSNTY-NH2; disulfide 3-8) | 0.1 nM

Continued, values first:

EC50 | SMILES
0.1 nM | CC[C@H](C)[C@H](NC(=O)[C@@H]1CCCN1C(=O)CNC(=O)[C@H](Cc1ccccc1)NC(=O)[C@H](CC(N)=O)NC(=O)[C@H](CC(N)=O)NC(=O)[C@H](CO)NC(=O)[C@H](CO)NC(=O)[C@H](Cc1c[nH]cn1)NC(=O)[C@H](Cc1c[nH]cn1)NC(=O)[C@H](CC(C)C)NC(=O)[C@H](Cc1ccccc1)NC(=O)[C@H](CC(N)=O)NC(=O)[C@H](C)NC(=O)[C@H](CC(C)C)NC(=O)[C@H](CCCNC(=N)N)NC(=O)[C@H](CCC(N)=O)NC(=O)[C@@H](NC(=O)[C@H](C)NC(=O)[C@@H]1CSSC[C@H](NC(=O)[C@H](CCCNC(=N)N)NC(=O)[C@H](Cc2c[nH]cn2)NC(=O)[C@H](CCCNC(=N)N)NC(=O)[C@H](CCC(=O)O)NC(=O)CC[C@H](NC(=O)CCCCCCCCCCCCCCCCCCC(=O)O)C(=O)O)C(=O)N[C@@H](CC(N)=O)C(=O)N[C@@H]([C@@H](C)O)C(=O)N[C@@H](C)C(=O)N[C@@H]([C@@H](C)O)C(=O)N1)[C@@H](C)O)C(=O)N[C@@H](CC(C)C)C(=O)N1CCC[C@H]1C(=O)N1CCC[C@H]1C(=O)N[C@H](C(=O)N[C@@H](CC(N)=O)C(=O)N[C@H](C(=O)NCC(=O)N[C@@H](CO)C(=O)N[C@@H](CC(N)=O)C(=O)N[C@H](C(=O)N[C@@H](Cc1ccc(O)cc1)C(N)=O)[C@@H](C)O)C(C)C)[C@@H](C)O [Example 69, N-alpha-[(S)-4-Carboxy-4-(19-carboxynonadecanoylamino)butyryl]-Glu-Arg-His-[Arg1,His17]-pramlintide] ({C20 diacid-γGlu}-ERHRCNTATCATQRLANFLHHSSNNFGPILPPTNVGSNTY-NH2; disulfide 5-10)
0.3 nM | CC[C@H](C)[C@H](NC(=O)[C@@H]1CCCN1C(=O)CNC(=O)[C@H](Cc1ccccc1)NC(=O)[C@H](CC(N)=O)NC(=O)[C@H](CC(N)=O)NC(=O)[C@H](CO)NC(=O)[C@H](CO)NC(=O)[C@H](Cc1c[nH]cn1)NC(=O)[C@H](CCCNC(=N)N)NC(=O)[C@H](CC(C)C)NC(=O)[C@H](Cc1ccccc1)NC(=O)[C@H](CC(N)=O)NC(=O)[C@H](C)NC(=O)[C@H](CC(C)C)NC(=O)[C@H](CCCNC(=N)N)NC(=O)[C@H](CCC(N)=O)NC(=O)[C@@H](NC(=O)[C@H](C)NC(=O)[C@@H]1CSSC[C@H](NC(=O)[C@H](CCCNC(=N)N)NC(=O)[C@H](Cc2c[nH]cn2)NC(=O)[C@H](Cc2c[nH]cn2)NC(=O)COCCOCCNC(=O)CC[C@H](NC(=O)CCCCCCCCCCCCCCCCCCC(=O)O)C(=O)O)C(=O)N[C@@H](CC(N)=O)C(=O)N[C@@H]([C@@H](C)O)C(=O)N[C@@H](C)C(=O)N[C@@H]([C@@H](C)O)C(=O)N1)[C@@H](C)O)C(=O)N[C@@H](CC(C)C)C(=O)N1CCC[C@H]1C(=O)N1CCC[C@H]1C(=O)N[C@H](C(=O)N[C@@H](CC(N)=O)C(=O)N[C@H](C(=O)NCC(=O)N[C@@H](CO)C(=O)N[C@@H](CC(N)=O)C(=O)N[C@H](C(=O)N[C@@H](Cc1ccc(O)cc1)C(N)=O)[C@@H](C)O)C(C)C)[C@@H](C)O [Example 57, N-alpha-[2-(2-{2-[4-(S)-Carboxy-4-(19-carboxynonadecanoylamino)butyrylamino]ethoxy}ethoxy)acetyl]-His-His-[Arg1,Arg17]-pramlintide] ({C20 diacid-γGlu-AEEA}-HHRCNTATCATQRLANFLRHSSNNFGPILPPTNVGSNTY-NH2; disulfide 4-9)
0.08 nM | CC[C@H](C)[C@H](NC(=O)[C@@H]1CCCN1C(=O)CNC(=O)[C@H](Cc1ccccc1)NC(=O)[C@H](CC(N)=O)NC(=O)[C@H](CC(N)=O)NC(=O)[C@H](CO)NC(=O)[C@H](CO)NC(=O)[C@H](Cc1c[nH]cn1)NC(=O)[C@H](Cc1c[nH]cn1)NC(=O)[C@H](CC(C)C)NC(=O)[C@H](Cc1ccccc1)NC(=O)[C@H](CC(N)=O)NC(=O)[C@H](C)NC(=O)[C@H](CC(C)C)NC(=O)[C@H](CCCNC(=N)N)NC(=O)[C@H](CCC(N)=O)NC(=O)[C@@H](NC(=O)[C@H](C)NC(=O)[C@@H]1CSSC[C@H](NC(=O)[C@H](CCCNC(=N)N)NC(=O)CCOCCOCCOCCOCCOCCOCCOCCOCCNC(=O)CC[C@H](NC(=O)CCCCCCCCCCCCCCCCC(=O)O)C(=O)O)C(=O)N[C@@H](CC(N)=O)C(=O)N[C@@H]([C@@H](C)O)C(=O)N[C@@H](C)C(=O)N[C@@H]([C@@H](C)O)C(=O)N1)[C@@H](C)O)C(=O)N[C@@H](CC(C)C)C(=O)N1CCC[C@H]1C(=O)N1CCC[C@H]1C(=O)N[C@H](C(=O)N[C@@H](CC(N)=O)C(=O)N[C@H](C(=O)NCC(=O)N[C@@H](CO)C(=O)N[C@@H](CC(N)=O)C(=O)N[C@H](C(=O)N[C@@H](Cc1ccc(O)cc1)C(N)=O)[C@@H](C)O)C(C)C)[C@@H](C)O [Example 52, N-alpha-[3-(2-{2-[2-(2-{2-[2-(2-{2-[(S)-4-Carboxy-4-(17-carboxyheptadecanoylamino)butyrylamino]ethoxy}ethoxy)ethoxy]ethoxy}ethoxy)ethoxy]ethoxy}ethoxy)propionylamino][Arg1,His17]-pramlintide] ({C18 diacid-γGlu-PEG8}-RCNTATCATQRLANFLHHSSNNFGPILPPTNVGSNTY-NH2; disulfide 2-7)
